Reference: BindingDB's records for doi:10.1016/j.ejmech.2015.01.009 (Universiti Teknologi Mara (Uitm), 2015)

Test: Inhibition of alpha-glucosidase (unknown origin) using pNPG substrate incubated for 15 mins by microplate reader based method

Compound | IC50
O=C(N/N=C/c1ccc([N+](=O)[O-])cc1)c1ccc(-c2nc3ccccc3s2)cc1 | 26.4 µM
O=C(N/N=C/c1ccc(F)cc1)c1ccc(-c2nc3ccccc3s2)cc1 | 7.12 µM
COc1cc(/C=N/NC(=O)c2ccc(-c3nc4ccccc4s3)cc2)cc(OC)c1 | 16.2 µM
O=C(N/N=C/c1ccccc1)c1ccc(-c2nc3ccccc3s2)cc1 | 8.05 µM
O=C(N/N=C/c1ccc(F)c(Br)c1)c1ccc(-c2nc3ccccc3s2)cc1 | 28 µM
COc1ccc(/C=N/NC(=O)c2ccc(-c3nc4ccccc4s3)cc2)cc1 | 18.3 µM
O=C(N/N=C/c1c(O)cc(O)cc1O)c1ccc(-c2nc3ccccc3s2)cc1 | 8.37 µM
O=C(N/N=C/c1ccc(O)c(Br)c1)c1ccc(-c2nc3ccccc3s2)cc1 | 8.07 µM
O=C(N/N=C/c1ccc(Cl)cc1)c1ccc(-c2nc3ccccc3s2)cc1 | 5.31 µM
COc1cccc(/C=N/NC(=O)c2ccc(-c3nc4ccccc4s3)cc2)c1 | 11.1 µM
O=C(N/N=C/c1cccc(O)c1)c1ccc(-c2nc3ccccc3s2)cc1 | 9.21 µM
COc1cc(/C=N/NC(=O)c2ccc(-c3nc4ccccc4s3)cc2)ccc1O | 53.3 µM
COc1ccc(/C=N/NC(=O)c2ccc(-c3nc4ccccc4s3)cc2)c(I)c1O | 44.8 µM
O=C(N/N=C/c1cc(O)ccc1O)c1ccc(-c2nc3ccccc3s2)cc1 | 11.8 µM
O=C(N/N=C/c1cc(O)cc(O)c1)c1ccc(-c2nc3ccccc3s2)cc1 | 11.1 µM
COc1ccc(O)c(/C=N/NC(=O)c2ccc(-c3nc4ccccc4s3)cc2)c1 | 6.5 µM
O=C(N/N=C\c1ccccn1)c1ccc(-c2nc3ccccc3s2)cc1 | 10.2 µM
O=C(N/N=C/c1ccc(O)cc1)c1ccc(-c2nc3ccccc3s2)cc1 | 11.3 µM
O=C(N/N=C/c1cccs1)c1ccc(-c2nc3ccccc3s2)cc1 | 8.48 µM
O=C(N/N=C/c1cccc(O)c1O)c1ccc(-c2nc3ccccc3s2)cc1 | 11.2 µM
COc1ccc(/C=N/NC(=O)c2ccc(-c3nc4ccccc4s3)cc2)c(O)c1 | 6.97 µM
O=C(N/N=C/c1ccccc1O)c1ccc(-c2nc3ccccc3s2)cc1 | 5.55 µM
O=C(N/N=C\c1ccco1)c1ccc(-c2nc3ccccc3s2)cc1 | 12.8 µM
O=C(N/N=C/c1ccc(O)c(O)c1)c1ccc(-c2nc3ccccc3s2)cc1 | 15.1 µM
O=C(N/N=C/c1ccc(O)cc1O)c1ccc(-c2nc3ccccc3s2)cc1 | 5.58 µM
